From patent US9982265B2, “Inhibition of Bruton's tyrosine kinase (Btk) in the lung to treat severe lung inflammation and lung injury” (BOARD OF REGENTS, THE UNIVERSITY OF TEXAS SYSTEM, priority 2014, dated 2018)

Experiments:
thrombomodulin (TM) [1] = assay: Thrombomodulin in BAL fluid by Western blot, LPS/IC induced ALI; assay type: in vivo, mice; settings: FIG. 6D
Method: Western Blotting: BAL fluids were subjected to SDS PAGE electrophoresis, transferred onto PVDF membrane and further evaluated for the presence of thrombomodulin using anti-mouse TM antibody (M-17; Santa Cruz Biotechnology, Santa Cruz, Calif.). In some experiments cell culture media or cell lysates were analyzed for level of MPO or actin (EMD Millipore, Billerica, Mass. and Santa Cruz Biotechnology, respectively) or phospho-p40 phox (Santa Cruz Biotechnology).
Endothelial damage in this ALI model was also examined by assessing the release of thrombomodulin (TM), which is a membrane protein expressed on the capillary endothelium (40, 52). A Western Blot analysis of BAL fluid samples was performed (FIG. 6D) from control mice (Saline), mice with LPS/IC induced ALI, and mice treated with siRNA specific for Btk, or MMP-9, or control siRNA. The bar graph in FIG. 6D includes data from 3 experiments. For each repetition a fold over a corresponding control was calculated. Means of all repetitions as well as associated standard deviations were graphed. […] The same was true for mice that received nonspecific control siRNA (p<0.05).

Btk = assay: Expression of Btk / pBtk in alveolar neutrophils of treated ALI mice, laser confocal microscopy; assay type: in vivo; settings: LPS/IC ALI; 2 h after administration of ICs; FIG. 4B
Method: Laser Confocal Microscopy: Purified alveolar neutrophils mounted on cytospins were incubated with the following primary antibodies: anti-mouse Btk, anti-mouse MyD88, anti-mouse MMP-9 (Santa Cruz Biotechnology), and anti-mouse pBtk (Invitrogen, Grand Island, N.Y.). Species specific antibodies conjugated with fluorescent dyes were subsequently applied to slides. Lung tissue sections, processed as routinely done in our laboratory (26, 28), were incubated with anti-mouse FcγRIII antibody (R&D Systems, Minneapolis, Minn.), or anti-mouse MMP-9 antibody (Santa Cruz Biotechnology), or with anti-neutrophil (Ly6G1A8) antibody (Bio X Cell, West Lebanon, N.H.) followed by fluorescence dye-conjugated secondary antibodies. Hoechst 33342 (Calbiochem, San Diego, Calif.) was employed to stain nuclei. Laser confocal microscopy was performed using PerkinElmer Ultra VIEW LCI confocal imaging system with Nikon TE2000-S fluorescence microscope and PlanApox60 immersion oil objective (numerical aperture [NA] 1.4) at room temperature. Ultra VIEW Imaging Suite software (version 5.5.0.4) was used for image processing.
Laser confocal microscopy was employed to confirm the effectiveness of Btk blocking in alveolar neutrophils. […] The effectiveness of Btk silencing in alveolar neutrophils was 92%. […] These experiments were performed at 2 h after administration of ICs.

[2] = system: mice with LPS/IC induced ALI; assay: Two hit model of LPS/IC induced acute lung injury, Lung Injury Score from pulmonary histopathology; assay type: in vivo; settings: Table 5; intranasal treatment after LPS, before ICs; samples 14 h after IC; score 0 to 2; means ± SD, 4-5 animals per group
Method: BALB/c mice (Taconic Germantown, N.Y.) were first injected intraperitoneally (i.p.) with either LPS or saline and 8 h later received anti-KC:KC immune complexes or saline (control) by intranasal (i.n.) route. Anti-KC:KC immune complexes were prepared according to the protocol routinely used in our laboratory (28). Some mice received Btk specific siRNA intranasally. In other experiments the animals were treated i.n. with siRNA specific for Btk (see SEQ ID NOs:18-25) or MMP-9 (Invitrogen), both conjugated (T3™-MAX Conjugation Kit (Bioo Scientific Corporation, Austin, Tex.) to F(ab′)2 fragments of anti-mouse neutrophil antibody Ly-6G1A8). F(ab′)2 fragments alone or conjugated to control siRNA (SEQ ID NO's 26 and 27) (Invitrogen) served as controls of the treatment. Two or fourteen hours after i.n. administration of either immune complexes or saline, the animals were euthanized and samples collected for further evaluation. To study role of neutrophil FcγRIII receptors neutrophils were first depleted by i.p. injection of vinblastine (31) followed by adoptive transfer of cells deficient in FcγRIII receptors prepared as described below. […] Lung dysfunction was assessed by analysis of pulmonary histopathology.
Pulmonary Histopathology: Lungs were fixed in ExCellPlus (AMTS, Lodi, Calif.), embedded in paraffin, and sectioned at 5 μm. […] The images of stained sections were evaluated for the presence of alveolar exudate, infiltration of inflammatory cells, and interstitial thickening. Lung Injury Score (LIS) was assessed as described earlier (28). Most images were assessed at magnification of over 400×. […] At the minimum twenty sections from each group of mice were evaluated and 4 investigators participated in the analysis of 50 or more fields per group. According to recommendation of “An Official American Thoracic Society Workshop Report: Features and Measurements of Experimental Acute Lung Injury in Animals” (Am J Respir Cell Mol Biol 44 725-738, 2011) more than 20 high power fields were independently scored (as described above) and at least 50% of each field was occupied by lung alveoli. […]

thrombomodulin (TM) [3] = assay: Thrombomodulin in BAL fluid by Western blot, flu induced ALI; assay type: in vivo, mice; settings: FIG. 13

Substance: Cont siRNA: control siRNA #8 (SEQ ID NO:26/27) conjugated to F(ab′)2 fragments of Ly6G1A8 (chain 1 UUCCUCUCCACGCGCAGUACAUUUA; chain 2 AAGGAGAGGUGCGCGUCAUGUAAAU; conjugated to antibody F(ab')2 fragment, attachment not given here; one strand is listed 3' to 5')
- levels of thrombomodulin (TM) in BAL fluid (thrombomodulin (TM) [1]): significantly increased levels
- Btk in lung neutrophils (Btk): normal levels
- Lung Injury Score: Edema fluid [2]: 1.337 ± 0.170
- Lung Injury Score: Inflammatory infiltration [2]: 1.824 ± 0.141
- Lung Injury Score: Thickening of alveolar septa [2]: 1.607 ± 0.276
- levels of TM in BAL fluid (thrombomodulin (TM) [3]): significantly increased levels
